Legend:
Format in all cases: in vivo
wheat [1] = assay: Pre-emergence test, damage to crop plants; conditions: application rate 320 g/ha, scored visually after 3 weeks
Text: (§1) Seeds of monocotyledonous and dicotyledonous weed plants and crop plants are laid out in wood-fiber pots in sandy loam and covered with soil. The inventive compounds, formulated in the form of wettable powders (WP) or as emulsion concentrates (EC), are then applied to the surface of the soil cover in the form of an aqueous suspension or emulsion at a water application rate equating to 600 to 800 l/ha, with addition of 0.2% wetting agent. After the treatment, the pots are placed in a greenhouse and kept under good growth conditions for the test plants. The damage to the trial plants is scored visually after a test period of 3 weeks by comparison with untreated controls (herbicidal activity in percent (%): 100% efficacy=the plants have died, 0% efficacy=like control plants). In this test, for example, compounds no. […] Compounds no. […] Compounds no.

corn [2] = assay: Post-emergence test, damage to crop plants; conditions: application rate 80 g/ha, scored visually after about 3 weeks
Protocol: (§2) Seeds of monocotyledonous and dicotyledonous weed and crop plants are laid out in sandy loam in wood-fiber pots, covered with soil and cultivated in a greenhouse under good growth conditions. 2 to 3 weeks after sowing, the test plants are treated at the one-leaf stage. The inventive compounds, formulated in the form of wettable powders (WP) or as emulsion concentrates (EC), are then sprayed as aqueous suspension or emulsion at a water application rate equating to 600 to 800 I/ha with the addition of 0.2% of wetting agent onto the green parts of the plants. After the trial plants have been left to stand in a greenhouse under optimal growth conditions for about 3 weeks, the efficacy of the formulations is scored visually in comparison to untreated controls (herbicidal action in percent (%): 100% efficacy=the plants have died, 0% efficacy=like control plants). In this test, for example, compounds no. […] Compounds no. […] Compounds no.

wheat [3] = assay: Post-emergence test, damage to crop plants; conditions: application rate 80 g/ha, scored visually after about 3 weeks
Protocol: as §2

rice = assay: Post-emergence test, damage to crop plants; conditions: application rate 80 g/ha, scored visually after about 3 weeks
Protocol: as §2

corn [4] = assay: Pre-emergence test, damage to crop plants; conditions: application rate 320 g/ha, scored visually after 3 weeks
Text: as §1

SMILES | damage in wheat (wheat [1]) | damage in corn (corn [2]) | damage in wheat (wheat [3]) | damage in rice (rice) | damage in corn (corn [4])
Cc1c(C(=O)Nc2nnnn2C)ccc2c1S(=O)(=O)C=C2 [7-1] | did not cause any damage at all |  |  |  | 
CC1=Cc2c(ccc(C(=O)Nc3nnnn3Cc3ccc(Cl)cc3)c2Cl)S1(=O)=O [59-51] |  | did not cause any damage at all | did not cause any damage at all |  | 
Cc1c(C(=O)Nc2nnnn2C)ccc2c1SCC=C2 [61-1] | did not cause any damage at all |  | did not cause any damage at all | did not cause any damage at all | 
CC1=Cc2c(ccc(C(=O)Nc3nonc3-n3cncn3)c2Cl)S1(=O)=O [60-115] | did not cause any damage at all |  |  |  | did not cause any damage at all
CC1=Cc2c(ccc(C(=O)Nc3nonc3C)c2Cl)S1(=O)=O [17-19] | did not cause any damage at all |  | did not cause any damage at all | did not cause any damage at all | did not cause any damage at all
Cc1c(C(=O)Nc2nnnn2C)ccc2c1S(=O)(=O)CC=C2 [67-1] |  | did not cause any damage at all | did not cause any damage at all |  | 

From patent publication US20150216171A1, “HERBICIDALLY ACTIVE BICYCLOARYL CARBOXYLIC ACID AMIDES” (BAYER CROPSCIENCE AG, priority 2012, published 2015)
